Results on 14 molecules are retold here after publication PMC8474116, “Discovery of Novel Acetamide-Based Heme Oxygenase-1 Inhibitors with Potent In Vitro Antiproliferative Activity” (Journal of Medicinal Chemistry, 2021).

Structures are written as SMILES.

For data set [1], the target named is T1, HO-1 (Rattus norvegicus, UniProt P06762).
T1 construct: selected to use the most native (i.e., closest to in vivo) forms of HO-1 and HO-2; from tissue; host or cells: rat spleen (male Sprague-Dawley), microsomal fraction
T1 sequence (P06762 1-289): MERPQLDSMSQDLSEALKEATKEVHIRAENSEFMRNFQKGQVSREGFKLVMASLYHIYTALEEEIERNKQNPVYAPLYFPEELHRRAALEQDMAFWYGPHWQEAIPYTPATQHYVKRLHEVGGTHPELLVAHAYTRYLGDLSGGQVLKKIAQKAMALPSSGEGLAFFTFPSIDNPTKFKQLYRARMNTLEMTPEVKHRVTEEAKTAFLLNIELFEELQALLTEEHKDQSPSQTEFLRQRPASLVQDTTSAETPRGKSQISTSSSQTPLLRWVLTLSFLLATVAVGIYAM
In words: HO-1 enzymatic activity, rat spleen microsomal fraction (bilirubin formation). Type of data set: biochemical. Particulars: for IC50 / HO-1 inhibitory activity (in words): rat spleen microsomal fraction; for IC50: mean of triplicate ± SD. How it is done:
(§1) HO-1 and HO-2 were obtained, respectively, from the rat spleen and brain as the microsomal fraction prepared by differential centrifugation; the dominance of HO-1 protein in the rat spleen and HO-2 in the rat brain has been well documented.[24] These particular microsomal preparations were selected to use the most native (i.e., closest to in vivo) forms of HO-1 and HO-2. Spleen and brain (Sprague-Dawley rats) microsomal fractions were prepared according to the procedure outlined by Ryter et al.[2] The experiments reported in the present paper complied with the current Italian law and met the guidelines of the Institutional Animal Care and Use Committee of the Ministry of Health (Directorate General for Animal Health and Veterinary Medicines, Italy) “Dosing of enzymatic activities in rat microsomes” (2018–2022), project code 02769.N.VLY. The experiments were performed in male Sprague-Dawley albino rats (150 g body weight and age 45 d). They had free access to water and were kept at room temperature with a natural photoperiod (12 h light–12 h dark cycle). For measuring HO-1 and HO-2 activities, each rat was sacrificed and their spleen and brain were excised and weighed. A homogenate (15%, w/v) of spleens and brains pooled from four rats was prepared in ice-cold HO-homogenizing buffer (50 mM Tris buffer, pH 7.4, containing 0.25 M sucrose) using a Potter–Elvehjem homogenizing system with a Teflon pestle. The microsomal fraction of rat spleen and brain homogenate was obtained by centrifugation at 10 000g for 20 min at 4 °C, followed by centrifugation of the supernatant at 100 000g for 60 min at 4 °C. The 100 000g pellet (microsomes) was resuspended in 100 mM of potassium phosphate buffer, pH 7.8, containing 2 mM MgCl2 with a Potter–Elvehjem homogenizing system. The rat spleen and brain microsomal fractions were divided into equal aliquots, placed into microcentrifuge tubes, and stored at −80 °C for up to 2 months.
(§2) Liver cytosol has been used as a source of biliverdin reductase. Rat liver was perfused through the hepatic portal vein with cold 0.9% NaCl; then, it was cut and flushed with 2 × 20 mL of ice-cold PBS to remove all of the blood. Liver tissue was homogenized in 3 volumes of a solution containing 1.15% KCl w/v and Tris buffer 20 mM, pH 7.8 on ice. Homogenates were centrifuged at 10 000g for 20 min at 4 °C. The supernatant was decanted and centrifuged at 100 000g for 1 h at 4 °C to sediment the microsomes. The 100 000g supernatant was saved and then stored in small amounts at −80 °C after its protein concentration was measured.
(§3) The HO-1 and HO-2 activities were determined by measuring the bilirubin formation using the difference in absorbance at 464–530 nm, as described by Ryter et al.[2] Reaction mixtures (500 μL) consisted of 20 mM of Tris–HCl, pH 7.4, (1 mg/mL) microsomal extract, 0.5–2 mg/mL of biliverdin reductase, 1 mM of NADPH, 2 mM of glucose 6-phosphate (G6P), 1 U of G6P dehydrogenase, 25 μM of hemin, and 10 μL of DMSO (or the same volume of DMSO solution of test compounds to a final concentration of 100, 10, and 1 μM). Incubations were carried out for 60 min at 37 °C in a circulating water bath in the dark. Reactions were stopped by adding the same volume of chloroform. After recovering the chloroform phase, the amount of bilirubin formed was measured with a double-beam spectrophotometer as OD464–530 nm (extinction coefficient, 40 mM/cm^–1 for bilirubin). One unit of the enzyme was defined as the amount of enzyme catalyzing the formation of 1 nmol of bilirubin/mg protein/h.

Data set [2] addresses T2, HO-2 (Rattus norvegicus, UniProt P23711).
T2 construct: selected to use the most native (i.e., closest to in vivo) forms of HO-1 and HO-2; from tissue; host or cells: rat brain (male Sprague-Dawley), microsomal fraction
T2 sequence (P23711 1-315): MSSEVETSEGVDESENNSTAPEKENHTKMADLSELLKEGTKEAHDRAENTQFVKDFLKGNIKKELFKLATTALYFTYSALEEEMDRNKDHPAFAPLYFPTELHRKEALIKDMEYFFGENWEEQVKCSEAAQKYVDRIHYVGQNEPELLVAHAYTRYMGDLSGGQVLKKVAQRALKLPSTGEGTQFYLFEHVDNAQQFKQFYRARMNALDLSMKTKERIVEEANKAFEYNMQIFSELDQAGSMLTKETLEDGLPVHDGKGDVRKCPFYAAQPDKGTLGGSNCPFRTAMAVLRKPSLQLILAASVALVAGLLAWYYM
In words: HO-2 enzymatic activity, rat brain microsomal fraction (bilirubin formation). Format: biochemical. Particulars: mean of triplicate ± SD. Here is the method:
as §1, §2, §3

Data set [3] relates to U87MG cells. In words: MTT cell viability assay, U87MG. Type of data set: cell-based, human. The note with it: 48 h, at both concentrations 1 and 10 μM. How it is done:
(§4) Experiments were performed on human GBM cell lines U87MG (ATCCC number #HTB-14) and A172 (ATCCC #CRL-1620) on DU145 (ATCC HTB-81) and human lung adenocarcinoma A549 (ATCC CCL-185-LUC2). All cell lines were obtained from the American Type Culture Collection (ATCC, Rockville, MD). Cells were grown in Dulbecco’s modified Eagle’s medium (DMEM) supplemented with 10% of heat-inactivated fetal bovine serum (FBS), 100 U/mL of penicillin, and 100 μg/mL of streptomycin (Sigma-Aldrich, Steinheim, Germany). Cells were incubated at 37 °C in a humidified atmosphere with 5% CO2.
(§5) The effect of selected compounds 7i and 7l–p on cell viability was assessed by performing an MTT assay. Cells were seeded into 96-well plates at a density of 7 × 10^3 cells/well in 100 μL of culture medium. After 24 h, cells were treated with selected compounds at three different concentrations (1 μM, 10 μM, and 50 μM) for 48 h. Following treatments, 0.5 mg/mL of 3-[4,5-dimethylthiazol-2-yl]-2,5-diphenyltetrazolium bromide (MTT) (Sigma-Aldrich) was added to each well and incubated for 4 h at 37 °C. Finally, dimethyl-sulfoxide (DMSO) was used to dissolve formazan salts, and absorbance was measured at 570 nm in a microplate reader (Biotek Synergy-HT). Eight replicate wells were used for each group.
On the technique in general: Tetrazolium dyes change colour on reduction, which living cells bring about.

Data set [4] concerns A172 cells. In words: MTT cell viability assay, A172. Type of data set: cell-based, human. The note with it: 48 h, all tested concentrations (1, 10, 50 μM). Here is the method:
as §4, §5

Data set [5] has as its system HO-1. In words: HO-1 protein expression by Western blot, A172. The note with it: A172, 10 μM, 48 h. Format: cell-based, human. Here is the method: Proteins were extracted from total cell lysate, as previously described.[61] Briefly, cell lines were added to a buffer containing 20 mM Tris (pH 7.4), 2 mM EDTA, 0.5 mM EGTA, 50 mM mercaptoethanol, and […] sucrose supplemented with phosphatase and protease inhibitor cocktails (Roche Diagnostics, Monza, Italy). Subsequently, protein samples were sonicated twice for 20′ by using an ultrasonic probe, followed by centrifugation at 10 000g for 10 min at 4 °C. Sample proteins (30 μg) were diluted in 4X NuPage LDS sample buffer (Invitrogen, NP0007), heated at 80 °C for 5 min, and then separated on a Biorad Criterion XT 4–15% Bis–Tris gel (BIO-RAD) by electrophoresis and then transferred to a PVDF membrane (BIO-RAD). Blots were blocked using the Odyssey Blocking Buffer (LI-COR Biosciences) and probed with appropriate antibodies: HO-1 antibody (GeneTex GTX101147), goat polyclonal anti-VEGF (cat. no. sc-1836, Santa Cruz Biotechnology), and rabbit polyclonal anti-β-tubulin (cat n.sc-9104, Santa Cruz Biotechnology) and β-actin antibody (GeneTex GTX109639).
The secondary antibodies goat antirabbit (Odyssey, #926-32211; Odyssey #926-68021) and donkey antigoat IRDye 800CW (cat #926-32214; Li-Cor Biosciences) were used at 1:7000. Blots were scanned, and densitometric analysis was performed with the Odyssey Infrared Imaging System. Values were normalized to β-actin and to β-tubulin.
A general note: A western blot detects proteins with antibodies after separation by electrophoresis.

The IC50 is the concentration needed to halve the response being measured. Higher therefore signals a need for much substance. Take `O=C(Cn1ccnc1)Nc1ccccc1` [7a]: half-maximal inhibition in data set [1] (IC50) was put at 110 ± 3.1 µM.

The melting point is the temperature, or range, at which the solid turns liquid. In turn, `CN(C(=O)Cn1ccnc1)c1ccccc1` [7b, 2-(1H-Imidazol-1-yl)-N-methyl-N-phenylacetamide] came in with a melting point of 117 to 119 °C.

In turn, `O=C(Cn1ccnc1)Nc1cccc(Br)c1` [7c, N-(3-Bromophenyl)-2-(1H-imidazol-1-yl)acetamide] showed a melting point of 158 to 162 °C. The same molecule had an IC50 in data set [1] of 35.7 ± 1.2 µM.

For the molecule `O=C(Cn1ccnc1)Nc1ccc(I)cc1` [7d, 2-(1H-Imidazol-1-yl)-N-(4-iodophenyl)acetamide], the melting point fell in the range of 222 to 225 °C. It took 8.34 ± 0.21 µM to reach half-maximal inhibition in data set [1] (IC50).

With `CN(C(=O)Cn1ccnc1)c1ccc(I)cc1` [7e, 2-(1H-Imidazol-1-yl)-N-(4-iodophenyl)-N-methylacetamide], it took 96.1 ± 1.44 µM to reach half-maximal inhibition in data set [1] (IC50).

On to `O=C(Cn1ccnc1)NCc1ccccc1` [7f], for which, in data set [1], the “fold decrease in potency with respect to 4 (HO-1)” value is recorded as 2 fold and the IC50 came out at 57.6 ± 2.38 µM.

Molecule `CN(Cc1ccccc1)C(=O)Cn1ccnc1` [7g, N-Benzyl-2-(1H-imidazol-1-yl)-N-methylacetamide] returned a melting point of 106 to 111 °C. For the same molecule, the IC50 in data set [1] was 50.6 ± 1.84 µM.

For `O=C(Cn1ccnc1)N(Cc1ccccc1)Cc1ccccc1` [7h, N,N-Dibenzyl-2-(1H-imidazol-1-yl)acetamide], the melting point was 99 to 102 °C. In data set [1], this molecule displayed an IC50 of 64.8 ± 1.56 µM.

Regarding `CN(C(=O)Cn1ccnc1)C(c1ccccc1)C1CCCC1` (stereo not drawn) [7j, N-(Cyclopentyl(phenyl)methyl)-2-(1H-imidazol-1-yl)-N-methylacetamide], the melting point lay within 134 to 136 °C. Further, in data set [1], the “fold less potent than compound 7i (HO-1)” value is recorded as 13 fold and 11.4 ± 0.97 µM corresponded to half-maximal inhibition (IC50).

In turn, `CN(C(=O)Cn1ccnc1)C(c1ccccc1)C1CCCCC1` (stereo not drawn) [7k, N-(Cyclohexyl(phenyl)methyl)-2-(1H-imidazol-1-yl)-N-methylacetamide] registered a melting point of 130 to 133 °C. Further, in data set [1], the “fold less potent than compound 7i (HO-1)” value is listed as 30 fold and it took 26.8 ± 1.61 µM to reach half-maximal inhibition (IC50).

`CN(C(=O)Cn1ccnc1)C(c1ccccc1)c1cccc(Br)c1` (stereo not drawn) [7m, N-((3-Bromophenyl)(phenyl)methyl)-2-(1H-imidazol-1-yl)-N-methylacetamide] registered a melting point of 82 to 83 °C. In data set [1], the “HO-1 vs HO-2 selectivity (in words)” value is “superimposable HO-1 and HO-2 IC50 values”; the IC50 came out at 0.9 ± 0.03 µM. The “SI (HO-2/HO-1)” value in data set [1] (ratio of HO-2 and HO-1 IC50) is reported as 1.2. Further, the half-inhibitory concentration (IC50) in data set [2] amounted to 1.1 ± 0.04 µM. The cell viability reduction entry in data set [3] was “more than 30%”. Also, in data set [4], the “cell viability reduction (in words)” value is “weak activity”. Moreover, the “HO-1 protein expression (in words)” value in data set [5] is “enhanced its levels”.

In the case of `CC(=O)N(CCCn1ccnc1)Cc1ccccc1` [11a, N-(3-(1H-Imidazol-1-yl)propyl)-N-benzylacetamide], in data set [1], the “HO-1 inhibitory activity (in words)” value was “almost inactive” and the IC50 worked out at 224 ± 8.1 µM.

As to `O=C(c1ccccc1)N(CCCn1ccnc1)Cc1ccccc1` [11b, N-(3-(1H-Imidazol-1-yl)propyl)-N-benzylbenzamide], in data set [1], the “HO-1 inhibitory activity (in words)” value was “comparable to the hit compound 4” and the IC50 was 31 ± 1.74 µM.

With `O=C(Cc1ccccc1)N(CCCn1ccnc1)Cc1ccccc1` [11c, N-(3-(1H-Imidazol-1-yl)propyl)-N-benzyl-2-phenylacetamide], in data set [1], the “HO-1 inhibitory activity (in words)” value is given as “comparable to the hit compound 4” and half-maximal inhibition (IC50) required 32 ± 1.48 µM.
